From ChEMBL document CHEMBL5226333, “Targeting Autophagy-Related Epigenetic Regulators for Cancer Drug Discovery” (J Med Chem, 2021)

Assays:
[1] = Cmax in Swiss albino mouse plasma at 50 mg/kg,po and measured after 24 hrs; assay type: ADME, organism-based; set-up: time 24 hrs, dose 50 mg/kg, route po; details: in vivo
[2] = biological target: Histone-lysine N-methyltransferase EZH2 (Homo sapiens, UniProt Q15910); experiment: Inhibition of EZH2 (unknown origin) in PRC2 complex using H3 (1 to 24 residues) and 3H-SAM as substrate incubated for 1 hrs by Scintillation proximity assay
Histone-lysine N-methyltransferase EZH2, sequence (Q15910 whole entry, the tested form may be a part): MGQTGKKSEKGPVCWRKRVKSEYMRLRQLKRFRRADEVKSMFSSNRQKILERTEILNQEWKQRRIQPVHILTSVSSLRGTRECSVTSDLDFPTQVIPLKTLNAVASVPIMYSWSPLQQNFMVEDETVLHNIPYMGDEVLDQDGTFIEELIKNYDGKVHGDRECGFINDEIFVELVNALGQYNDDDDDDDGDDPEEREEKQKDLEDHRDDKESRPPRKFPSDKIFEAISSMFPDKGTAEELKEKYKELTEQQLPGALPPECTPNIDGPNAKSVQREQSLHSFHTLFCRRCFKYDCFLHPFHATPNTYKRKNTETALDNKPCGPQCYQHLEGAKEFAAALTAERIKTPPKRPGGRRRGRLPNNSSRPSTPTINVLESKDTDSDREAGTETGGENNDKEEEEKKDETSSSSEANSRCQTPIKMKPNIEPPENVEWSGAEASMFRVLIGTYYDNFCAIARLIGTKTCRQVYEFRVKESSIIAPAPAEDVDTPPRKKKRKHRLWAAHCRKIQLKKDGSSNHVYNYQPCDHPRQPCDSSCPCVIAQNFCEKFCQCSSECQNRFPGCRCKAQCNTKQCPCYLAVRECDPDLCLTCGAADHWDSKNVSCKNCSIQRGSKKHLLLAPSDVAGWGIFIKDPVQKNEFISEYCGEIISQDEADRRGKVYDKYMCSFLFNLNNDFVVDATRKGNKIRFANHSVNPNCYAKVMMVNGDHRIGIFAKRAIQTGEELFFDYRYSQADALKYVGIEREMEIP

[3] = Inhibition of GST-tagged […] human GLP (610 to 917 residues) methylation activity expressed in Escherichia coli BL21 assessed as reduction in H3K9me3 level using H3(1 to 20 residues)-cys-biotin and SAM as substrate incubated for 60 mins by Dissociation enhanced lanthanide fluoro-immuno assay

SMILES	Cmax [1] [µM]	IC50 [2] [µM]	IC50 [3] [µM]
CCCc1cc(C)[nH]c(=O)c1CNC(=O)c1cc(-c2ccc(N3CCN(C(C)C)CC3)nc2)cc2c1cnn2C(C)C	4.7	< 0.01	
COc1cc2nc(N3CCCN(C)CC3)nc(NC3CCN(Cc4ccccc4)CC3)c2cc1OC			38
